In ChEMBL document CHEMBL4229348, “Structure-activity relationship studies of ultra-short peptides with potent activities against fluconazole-resistant Candida albicans” (Eur J Med Chem, 2018):
Converted amounts (≈) assume the structure as drawn. The source made the active and inactive calls. The rule behind the calls is not given here. Square brackets hold non-standard residues; d marks the D form. Peptide text beside a SMILES is read from it. Lys(Me2) = CN(C)CCCC[C@H](N)C(=O)O; Ala(cPr) = N[C@@H](CC1CC1)C(=O)O; tBuAla = CC(C)(C)C[C@H](N)C(=O)O; Dap = NC[C@H](N)C(=O)O

Legend:
[1] = Retention time of the compound at 0.4 mM by HPLC analysis; format: physicochemical; conditions: 400 µM
Candida albicans [2] = assay: Antifungal activity against fluconazole-resistant Candida albicans ATCC 64550 after overnight incubation by CLSI broth microdilution method; format: functional
Candida albicans [3] = assay: Antifungal activity against fluconazole-resistant Candida albicans ATCC 64124 after overnight incubation by CLSI broth microdilution method; format: functional
Candida albicans [4] = assay: Antifungal activity against fluconazole-resistant Candida albicans ATCC MYA-573 after overnight incubation by CLSI broth microdilution method; format: functional
Candida albicans [5] = assay: Antifungal activity against fluconazole-resistant Candida albicans TTSH-CALB02 after overnight incubation by CLSI broth microdilution method; format: functional
Candida albicans [6] = assay: Antifungal activity against fluconazole-resistant Candida albicans TTSH-CALB01 after overnight incubation by CLSI broth microdilution method; format: functional
Candida albicans [7] = assay: Antifungal activity against fluconazole-resistant Candida albicans NUH-K6004 after overnight incubation by CLSI broth microdilution method; format: functional
Candida albicans [8] = assay: Antifungal activity against fluconazole-resistant Candida albicans ATCC 200955 after overnight incubation by CLSI broth microdilution method; format: functional
Candida albicans [9] = assay: Antifungal activity against fluconazole-resistant Candida albicans ATCC 96901 after overnight incubation by CLSI broth microdilution method; format: functional
[10] = Cytotoxicity against NHDF assessed as reduction in cell viability after 5 days by CellTiter-Glo assay; format: cell-based; conditions: human, NHDF cells
Candida albicans [11] = assay: Fungistatic activity against fluconazole-resistant Candida albicans ATCC 64550 at 4 times MIC incubated for overnight flowed by replating and measured after 24 hrs; format: functional, organism-based
[12] = Cytotoxicity against human bone marrow cells assessed as inhibition of colony formation; format: cell-based, Bone marrow cell
NHDF = assay: Cytotoxicity against NHDF assessed as reduction in cell viability up to 200 uM after 5 days by CellTiter-Glo assay; format: cell-based; conditions: human, 120 h

Compound | Retention_time [1] [min] | MIC (Candida albicans [2]) [µM] | further results
CC(C)C[C@@H](N)C(=O)N[C@H](CCCCN)C(=O)N[C@H](CC(C)C)C(=O)N[C@H](CCCCN)C(=O)N[C@H](CC(C)C)C(=O)N[C@H](CCCCN)C(=O)N[C@H](CC(C)C)C(=O)N[C@H](CCCCN)C(N)=O | 13.8 | 3.13 (≈ 3.07 µg/mL) | –
CC(C)C[C@H](NC(=O)[C@H](CCCCN)NC(=O)[C@H](CC(C)C)NC(=O)[C@H](CCCCN)NC(=O)[C@H](CC(C)C)NC(=O)[C@H](CCCCN)NC(=O)[C@@H](N)CC(C)C)C(=O)N[C@@H](CCCCN)C(N)=O | 13.8 | 3.13 (≈ 3.07 µg/mL) | –
CC[C@H](C)[C@H](N)C(=O)N[C@@H](CN)C(=O)N[C@H](C(=O)N[C@@H](CN)C(=O)N[C@H](C(=O)N[C@@H](CN)C(=O)N[C@H](C(=O)N[C@@H](CN)C(=O)N[C@H](C(N)=O)[C@@H](C)CC)[C@@H](C)CC)[C@@H](C)CC)[C@@H](C)CC (H-I[Dap]I[Dap]I[Dap]I[Dap]I-NH2) | 13.7 | 25 (≈ 23.2 µg/mL) | –
CC[C@H](C)[C@H](N)C(=O)N[C@@H](CCCCN(C)C)C(=O)N[C@H](C(=O)N[C@@H](CCCCN(C)C)C(=O)N[C@H](C(=O)N[C@@H](CCCCN(C)C)C(=O)N[C@H](C(=O)N[C@@H](CCCCN(C)C)C(N)=O)[C@@H](C)CC)[C@@H](C)CC)[C@@H](C)CC (H-I[Lys(Me2)]I[Lys(Me2)]I[Lys(Me2)]I[Lys(Me2)]-NH2) | 14 | 100 (≈ 109 µg/mL) | –
CC(C)C[C@H](NC(=O)[C@H](CCCCN)NC(=O)[C@@H](N)CC(C)C)C(=O)N[C@@H](CCCCN)C(N)=O (H-LKLK-NH2) | 11 | > 100 | –
CC(C)C[C@H](NC(=O)[C@H](CCCCN)NC(=O)[C@@H](N)CC(C)C)C(N)=O (H-Leu-Lys-Leu-NH2) | 12.1 | > 100 | –
CC(C)C[C@H](N)C(=O)N[C@@H](CCCCN)C(N)=O (H-Leu-Lys-NH2) | 2.1 | > 100 | –
CC(C)C[C@H](NC(=O)[C@@H](N)CCCCN)C(=O)N[C@@H](CCCCN)C(N)=O (H-Lys-Leu-Lys-NH2) | 2.4 | > 100 | –
NCCCC[C@H](NC(=O)[C@H](CC1CC1)NC(=O)[C@H](CCCCN)NC(=O)[C@H](CC1CC1)NC(=O)[C@H](CCCCN)NC(=O)[C@H](CC1CC1)NC(=O)[C@H](CCCCN)NC(=O)[C@@H](N)CC1CC1)C(N)=O (H-[Ala(cPr)]K[Ala(cPr)]K[Ala(cPr)]K[Ala(cPr)]K-NH2) | 12.8 | 6.25 (≈ 6.09 µg/mL) | –
CC(C)(C)C[C@H](NC(=O)[C@H](CCCCN)NC(=O)[C@H](CC(C)(C)C)NC(=O)[C@H](CCCCN)NC(=O)[C@H](CC(C)(C)C)NC(=O)[C@H](CCCCN)NC(=O)[C@@H](N)CC(C)(C)C)C(=O)N[C@@H](CCCCN)C(N)=O (H-[tBuAla]K[tBuAla]K[tBuAla]K[tBuAla]K-NH2) | 15.6 | 3.13 (≈ 3.25 µg/mL) | –
CC[C@H](C)[C@H](N)C(=O)N[C@@H](CCN)C(=O)N[C@H](C(=O)N[C@@H](CCN)C(=O)N[C@H](C(=O)N[C@@H](CCN)C(=O)N[C@H](C(=O)N[C@@H](CCN)C(=O)N[C@H](C(N)=O)[C@@H](C)CC)[C@@H](C)CC)[C@@H](C)CC)[C@@H](C)CC (HELM PEPTIDE1{I.[Dab].I.[Dab].I.[Dab].I.[Dab].I.[am]}$$$$V2.0) | 13.5 | 6.25 (≈ 6.15 µg/mL) | –
CC[C@H](C)[C@H](N)C(=O)N[C@@H](CCCN)C(=O)N[C@H](C(=O)N[C@@H](CCCN)C(=O)N[C@H](C(=O)N[C@@H](CCCN)C(=O)N[C@H](C(=O)N[C@@H](CCCN)C(=O)N[C@H](C(N)=O)[C@@H](C)CC)[C@@H](C)CC)[C@@H](C)CC)[C@@H](C)CC (HELM PEPTIDE1{I.[Orn].I.[Orn].I.[Orn].I.[Orn].I.[am]}$$$$V2.0) | 13.2 | 6.25 (≈ 6.5 µg/mL) | –
CC[C@H](NC(=O)[C@H](CCCCN)NC(=O)[C@H](CC)NC(=O)[C@H](CCCCN)NC(=O)[C@H](CC)NC(=O)[C@H](CCCCN)NC(=O)[C@@H](N)CC)C(=O)N[C@@H](CCCCN)C(N)=O (HELM PEPTIDE1{[Abu].K.[Abu].K.[Abu].K.[Abu].K.[am]}$$$$V2.0) | 6 | > 100 | –
CCCCCCCCCCCC(=O)N[C@H](C(=O)N[C@@H](CCCCN)C(=O)N[C@H](C(=O)N[C@@H](CCCCN)C(=O)N[C@H](C(=O)N[C@@H](CCCCN)C(=O)N[C@H](C(=O)N[C@@H](CCCCN)C(N)=O)[C@@H](C)CC)[C@@H](C)CC)[C@@H](C)CC)[C@@H](C)CC (HELM PEPTIDE1{[CCCCCCCCCCCC(=O)[*:2]].I.K.I.K.I.K.I.K.[am]}$$$$V2.0) | 20.8 | > 100 | –
CCCCCCCCCCCCCCCC(=O)N[C@H](C(=O)N[C@@H](CCCCN)C(=O)N[C@H](C(=O)N[C@@H](CCCCN)C(=O)N[C@H](C(=O)N[C@@H](CCCCN)C(=O)N[C@H](C(=O)N[C@@H](CCCCN)C(N)=O)[C@@H](C)CC)[C@@H](C)CC)[C@@H](C)CC)[C@@H](C)CC (HELM PEPTIDE1{[CCCCCCCCCCCCCCCC(=O)[*:2]].I.K.I.K.I.K.I.K.[am]}$$$$V2.0) | 23.5 | > 100 | –
NCCCC[C@H](NC(=O)[C@H](CC1CCCCC1)NC(=O)[C@H](CCCCN)NC(=O)[C@H](CC1CCCCC1)NC(=O)[C@H](CCCCN)NC(=O)[C@H](CC1CCCCC1)NC(=O)[C@H](CCCCN)NC(=O)[C@@H](N)CC1CCCCC1)C(N)=O (HELM PEPTIDE1{[Cha].K.[Cha].K.[Cha].K.[Cha].K.[am]}$$$$V2.0) | 17.9 | > 100 | –
CCC[C@H](NC(=O)[C@H](CCCCN)NC(=O)[C@H](CCC)NC(=O)[C@H](CCCCN)NC(=O)[C@H](CCC)NC(=O)[C@H](CCCCN)NC(=O)[C@@H](N)CCC)C(=O)N[C@@H](CCCCN)C(N)=O (HELM PEPTIDE1{[Nva].K.[Nva].K.[Nva].K.[Nva].K.[am]}$$$$V2.0) | 12 | 6.25 (≈ 5.79 µg/mL) | –
OC(Cn1cncn1)(Cn1cncn1)c1ccc(F)cc1F [FLUCONAZOLE] | – | > 100 | MIC (Candida albicans [3]): > 100 µM; MIC (Candida albicans [4]): > 100 µM; MIC (Candida albicans [5]): > 100 µM; MIC (Candida albicans [6]): > 100 µM; MIC (Candida albicans [7]): > 100 µM; MIC (Candida albicans [8]): > 100 µM; MIC (Candida albicans [9]): > 100 µM
Clc1ccc(COC(Cn2ccnc2)c2ccc(Cl)cc2Cl)c(Cl)c1 (stereo unspecified) [MICONAZOLE] | – | 12.5 (≈ 5.2 µg/mL) | GI50 at 120 h [10]: 10.3 µM; Activity (Candida albicans [11]): Active; MIC (Candida albicans [3]): 12.5 µM (≈ 5.2 µg/mL); GI50 [12]: 12.8 µM; MIC (Candida albicans [4]): 6.25 µM (≈ 2.6 µg/mL); MIC (Candida albicans [5]): 12.5 µM (≈ 5.2 µg/mL); MIC (Candida albicans [6]): 12.5 µM (≈ 5.2 µg/mL); MIC (Candida albicans [7]): 12.5 µM (≈ 5.2 µg/mL); MIC (Candida albicans [8]): 12.5 µM (≈ 5.2 µg/mL); MIC (Candida albicans [9]): 6.25 µM (≈ 2.6 µg/mL)
CC(O)CO (stereo unspecified) [PROPYLENE GLYCOL] | – | – | Activity (NHDF): Non-Toxic
Ac-IKIKIKIK-NH2 | 14.3 | 12.5 | –
H-AKAKAKAK-NH2 | 1.9 | > 100 | –
H-AKIKIKIK-NH2 | 12.4 | 6.25 | –
H-EKEKEKEK-NH2 | 1.9 | > 100 | –
H-FKFKFKFK-NH2 | 15.2 | 6.25 | –
H-GKGKGKGK-NH2 | 1.6 | > 100 | –
H-IAIKIKIK-NH2 | 13.7 | 12.5 | –

Compound | Retention_time [1] [min] | MIC (Candida albicans [2]) [µM] | further results
H-IEIEIEIE-NH2 | 16.1 | > 100 | –
H-IIIIKKKK-NH2 | 12 | 12.5 | –
H-IIKKIIKK-NH2 | 11.6 | > 100 | –
H-IK(Ac)IK(Ac)IK(Ac)IK(Ac)-NH2 | 22.9 | > 100 | –
H-IKAKIKIK-NH2 | 11.8 | 6.25 | –
H-IKIAIKIK-NH2 | 13.8 | 12.5 | –
H-IKIKAKIK-NH2 | 11.8 | 6.25 | –
H-IKIKIAIK-NH2 | 13.8 | 12.5 | –
H-IKIKIKAK-NH2 | 12 | 6.25 | –
H-IKIKIKIA-NH2 | 13.9 | 12.5 | –
H-IKIKIKIK-OH | 13.5 | 12.5 | –
H-ILRWPWWPWRRK-NH2 [OMIGANAN] | – | 50 | –
H-IRIRIRIR-NH2 | 13.9 | 12.5 | –
H-KIKIKIKI-NH2 | 14 | 3.13 | –
H-KKIIKKII-NH2 | 12.6 | > 100 | –
H-KKKKKKKK-NH2 | 2 | > 100 | –
H-KLKLK-NH2 | 11.2 | > 100 | –
H-KLKLKLK-NH2 | 12.7 | 25 | –
H-KLKLKLKL-NH2 | 14.4 | 3.13 | –
H-KLKLKLKLK-NH2 | 13.6 | 3.13 | –
H-LKLKL-NH2 | 13.7 | > 100 | –
H-LKLKLK-NH2 | 12.8 | 100 | –
H-LKLKLKL-NH2 | 14.5 | 50 | –
H-LKLKLKLKL-NH2 | 15.1 | 3.13 | –
H-LKLKLKLKLK-NH2 | 14.5 | 3.13 | –
H-VKVKVKVK-NH2 | 11.1 | 6.25 | –
H-WKWKWKWK-NH2 | 15.9 | > 100 | –
